From patent US20210386768A1, “COMBINATION MEDICINE” (FUJIFILM Corporation, priority 2019, published 2021)

Assays:
Assay type in all cases: cell-based, human
[1] = tested on: Cell derived from FLT3-ITD mutation-negative leukemia patient; assay: Proliferation inhibitory activity against cells derived from a leukemia patient by combined use (CellTiter-Glo, combination index), FLT3-ITD negative
Method: (§1) <Evaluation of Proliferation Inhibitory Activity Against Cell Derived from Leukemia Patient by Combined Use of Existing Anti-Cancer Agent>
(§2) Monocytes isolated from bone marrow or peripheral blood of two leukemia patients (one patient is FLT3-ITD mutation-positive, and the other patient is FLT3-ITD mutation-negative) were used and cultured in MethoCult™ H4534 Classic Without EPO (Cat. #H4534, manufacture by […] technologies). During this test, all cell cultures were performed in a CO2 incubator (setting: 37° C., 5% CO2, water vapor saturated). Cells were diluted with medium to 5,000 cells/well/90 μL and seeded on a 96-well plate.
(§3) After serially diluting with DMSO and further diluting with a medium, each of the test substance solutions having a concentration 10 times the final treatment concentration was prepared.
(§4) In addition, a group (a positive control group) in which only a solvent containing no drugs was added to a well in which cells were plated and a group (a negative control group) in which only a solvent containing no drugs was added to a well in which only a medium was added were prepared.
(§5) After the addition of the drug, cells were cultured for 7 or 8 days, and the cell viability was evaluated using CellTiter-Glo (registered trade mark) Reagent (Cat. #G7570, manufactured by Promega Corporation) using the amount of ATP in the cells as an indicator.
(§6) The suppression rate was determined by assuming that the amount of luminescence signal in the negative control group corresponded to the suppression of cell viability by 100% and the amount of luminescence signal in the positive control group corresponded to the suppression of cell viability by 0%. The concentration (IC50 value) at which cell viability is suppressed by 50% was calculated using XLFit (registered trade mark) software Ver. 3 (manufactured by ITOCHU Techno-Solutions Corporation). The suppression effect (Fa, the fraction affected by the dose) was calculated by dividing the suppression rate by 100.
(§7) The combination effect of the present invention was determined by calculating the combination index (CI), which is a quantitative indicator of the combination effect, using CalcuSyn (BIOSOFT) based on the value of the suppression effect.
(§8) In the table, “Fa around 0.5” and “Fa around 0.75” mean the effect of suppressing the cell viability by about 50% and about 75%, respectively, in a case where drugs are used in combination.

[2] = tested on: FLT3-ITD mutation-positive leukemia cell line MV-4-11; assay: Proliferation inhibitory activity against MV-4-11 by combined use of anti-cancer agents (CellTiter-Glo, combination index)
Method: <Evaluation of Proliferation Inhibitory Activity Against FLT3-ITD Mutation-Positive Leukemia Cell Line MV-4-11 by Combined Use of Anti-Cancer Agent>
MV-4-11 cells which are a human FLT3-ITD mutation-positive leukemia cell line were subcultured in an RPMI-1640 medium containing 10% serum. During this test, all cell cultures were performed in a CO2 incubator (setting: 37° C., 5% CO2, water vapor saturated). Cells were diluted with a medium containing 10% serum to 1,000 cells/well/20 μL and seeded on a 384-well plate.
After being serially diluted with DMSO and further being diluted with a medium containing 10% serum, each of the test substance solutions having a concentration 10 times the final treatment concentration was prepared.
as §4
After the addition of the drug, cells were cultured for 3 days, and the cell viability was evaluated using CellTiter-Glo (registered trade mark) Reagent (Cat. #G7570, manufactured by Promega Corporation) using the amount of ATP in the cells as an indicator.
as §6, §7, §8

[3] = tested on: Cell derived from FLT3-ITD mutation-positive leukemia patient; assay: Proliferation inhibitory activity against cells derived from a leukemia patient by combined use (CellTiter-Glo, combination index), FLT3-ITD positive
Method: as §1, §2, §3, §4, §5, §6, §7, §8

[4] = in combination with Compound A1
[5] = in combination with Compound A1, concentration fixing ratio A1:decitabine 1:10, A1:venetoclax 1:1, 7 or 8 days
[6] = in combination with Compound A1, MV-4-11

**Q.** For Venetoclax, which “combination effect in words, suppression effect around 0.5” value [1, 4] is on record?
**A.** strong synergistic effect

**Q.** And the “combination effect in words, suppression effect around 0.75” value [1, 4]?
**A.** strong synergistic effect

**Q.** What about the “combination index (CI), Fa around 0.5” value [1, 5] of the same substance?
**A.** +++ (Less than 0.7, a strong synergistic effect)

**Q.** What about the “combination index (CI), Fa around 0.75” value [1, 5] of the same substance?
**A.** +++ (Less than 0.7, a strong synergistic effect)

**Q.** What about the “combination index (CI), Fa around 0.5” value ([2]; in combination with Compound A1 (succinate salt), concentration fixing ratio A1:decitabine 1:3,000, A1:venetoclax 1:120, MV-4-11, 3 days, average of 4 experiments, about 50% suppression of cell viability) of the same substance?
**A.** ++ (0.7 or more and less than 0.85, a moderate synergistic effect)

**Q.** What about the “combination index (CI), Fa around 0.75” value ([2]; in combination with Compound A1 (succinate salt), concentration fixing ratio A1:decitabine 1:3,000, A1:venetoclax 1:120, MV-4-11, 3 days, average of 4 experiments, about 75% suppression of cell viability) of the same substance?
**A.** +++ (Less than 0.7, a strong synergistic effect)

**Q.** What about the “combination effect in words, suppression effect around 0.5” value [2, 6] of the same substance?
**A.** moderate synergistic effect

**Q.** And the “combination effect in words, suppression effect around 0.75” value [2, 6]?
**A.** strong synergistic effect

**Q.** What about the “combination effect in words, suppression effect around 0.5” value [3, 4] of the same substance?
**A.** strong synergistic effect

**Q.** What about the “combination effect in words, suppression effect around 0.75” value [3, 4] of the same substance?
**A.** strong synergistic effect

**Q.** And the “combination index (CI), Fa around 0.5” value [3, 5]?
**A.** +++ (Less than 0.7, a strong synergistic effect)

**Q.** What about the “combination index (CI), Fa around 0.75” value [3, 5] of the same substance?
**A.** +++ (Less than 0.7, a strong synergistic effect)
